# Experimental data published in paper PMC4312132, “Phenylalanine in the Pore of the Erwinia Ligand-Gated Ion Channel Modulates Picrotoxinin Potency but Not Receptor Function” (Biochemistry, 2014).
# Read-outs that look alike come from different tables or passages of the source.
# Columns and labels:
# F16′Q ELIC = biological target: T1, F16′Q ELIC (Dickeya chrysanthemi, UniProt P0C7B7, F246Q); assay: GABA activation of F16′Q ELIC, two-electrode voltage clamp in Xenopus oocytes; type: cell-based, Erwinia chrysanthemii; conditions: F16′Q ELIC; GABA concentration–response
# T1 construct: expressed in transfected cells; host or cells: Xenopus laevis oocytes (cRNA injection)
# wild type ELIC [1] = biological target: T2, wild type ELIC (Dickeya chrysanthemi, UniProt P0C7B7); assay: GABA activation of wild-type ELIC, two-electrode voltage clamp in Xenopus oocytes; type: cell-based, Erwinia chrysanthemii
# T2 construct: expressed in transfected cells; host or cells: Xenopus laevis oocytes (cRNA injection)
# Procedure: (§1) Xenopus laevis oocyte-positive females were purchased from NASCO (Fort Atkinson, WI) and maintained according to standard methods. Harvested stage V and VI Xenopus oocytes were washed in four changes of Ca^2+-free ND96 [96 mM NaCl, 2 mM KCl, 1 mM MgCl2, and 5 mM HEPES (pH 7.5)], defolliculated in 1.5 mg mL^–1 collagenase type 1A for approximately 2 h, washed again in four changes of ND96, and stored in ND96 at 16 °C containing 2.5 mM sodium pyruvate, […] gentamycin, and 0.7 mM theophylline.
# (§2) ELIC (GenBank accession number ADN00343.1) was kindly provided by C. Ulens. For expression in Xenopus oocytes, it was cloned into pGEMHE with the signal sequence of the human α7 nACh receptor. Site-directed mutagenesis was performed with the QuikChange mutagenesis kit (Stratagene, La Jolla, CA). cRNA was transcribed in vitro from the linearized pGEMHE cDNA template using the mMessage mMachine T7 transcription kit (Ambion, Austin, TX). Stage V and VI oocytes were injected with 20 ng of cRNA, and currents were recorded 1–3 days postinjection.
# (§3) Using two-electrode voltage clamp, Xenopus oocytes were clamped at −60 mV using an OC-725 amplifier (Warner Instruments, Hamden, CT), Digidata 1322A, and the Strathclyde Electrophysiology Software Package (Department of Physiology and Pharmacology, University of Strathclyde, Glasgow, U.K.). Currents were recorded at 5 kHz and filtered at a frequency of 1 kHz. Microelectrodes were fabricated from borosilicate glass (GC120TF-10, Harvard Apparatus, Edenbridge, Kent, U.K.) using a one-stage horizontal pull (P-87, Sutter Instrument Co., Novato, CA) and filled with 3 M KCl. Pipette resistances ranged from 1.0 to 2.0 MΩ. Oocytes were perfused with ND96 at a constant rate of 12 mL min^–1 with complete solution exchange within 5 s. Drug application was accomplished via a simple gravity-fed system calibrated to run at the same rate. Inhibition by test compounds was measured at the GABA EC50 for each mutant.
# Analysis and curve fitting were performed using Prism version 4.03 (GraphPad Software, San Diego, CA). […]
# F16′A ELIC [2] = biological target: T3, F16′A ELIC (Dickeya chrysanthemi, UniProt P0C7B7, F246A); assay: GABA activation of F16′A ELIC, two-electrode voltage clamp in Xenopus oocytes; type: cell-based, Erwinia chrysanthemii; conditions: F16′A ELIC; GABA concentration–response
# T3 construct: expressed in transfected cells; host or cells: Xenopus laevis oocytes (cRNA injection)
# Procedure: as §1
# (§4) ELIC (GenBank accession number ADN00343.1) was kindly provided by C. Ulens. For expression in Xenopus oocytes, it was cloned into pGEMHE with the signal sequence of the human α7 nACh receptor. […] Stage V and VI oocytes were injected with 20 ng of cRNA, and currents were recorded 1–3 days postinjection.
# (§5) Using two-electrode voltage clamp, Xenopus oocytes were clamped at −60 mV using an OC-725 amplifier (Warner Instruments, Hamden, CT), Digidata 1322A, and the Strathclyde Electrophysiology Software Package (Department of Physiology and Pharmacology, University of Strathclyde, Glasgow, U.K.). Currents were recorded at 5 kHz and filtered at a frequency of 1 kHz. […] Inhibition by test compounds was measured at the GABA EC50 for each mutant. […]
# F16′S/T6′S ELIC = biological target: T4, F16′S/T6′S ELIC (Dickeya chrysanthemi, UniProt P0C7B7, F246S/T236S); assay: GABA activation of F16′S/T6′S ELIC, two-electrode voltage clamp in Xenopus oocytes; type: cell-based, Erwinia chrysanthemii; conditions: F16′S/T6′S ELIC; GABA concentration–response
# T4 construct: expressed in transfected cells; host or cells: Xenopus laevis oocytes (cRNA injection)
# F16′T ELIC [3] = biological target: T5, F16′T ELIC (Dickeya chrysanthemi, UniProt P0C7B7, F246T); assay: GABA activation of F16′T ELIC, two-electrode voltage clamp in Xenopus oocytes; type: cell-based, Erwinia chrysanthemii; conditions: F16′T ELIC; GABA concentration–response
# T5 construct: expressed in transfected cells; host or cells: Xenopus laevis oocytes (cRNA injection)
# F16′S ELIC [4] = biological target: T6, F16′S ELIC (Dickeya chrysanthemi, UniProt P0C7B7, F246S); assay: GABA activation of F16′S ELIC, two-electrode voltage clamp in Xenopus oocytes; type: cell-based, Erwinia chrysanthemii; conditions: F16′S ELIC; GABA concentration–response
# T6 construct: expressed in transfected cells; host or cells: Xenopus laevis oocytes (cRNA injection)
# T6′S ELIC [5] = biological target: T7, T6′S ELIC (Dickeya chrysanthemi, UniProt P0C7B7, T236S); assay: GABA activation of T6′S ELIC, two-electrode voltage clamp in Xenopus oocytes; type: cell-based, Erwinia chrysanthemii; conditions: T6′S ELIC; GABA concentration–response
# T7 construct: expressed in transfected cells; host or cells: Xenopus laevis oocytes (cRNA injection)
# F16′Y ELIC = biological target: T8, F16′Y ELIC (Dickeya chrysanthemi, UniProt P0C7B7, F246Y); assay: GABA activation of F16′Y ELIC, two-electrode voltage clamp in Xenopus oocytes; type: cell-based, Erwinia chrysanthemii; conditions: F16′Y ELIC; GABA concentration–response
# T8 construct: expressed in transfected cells; host or cells: Xenopus laevis oocytes (cRNA injection)
# Q2′N ELIC [6] = biological target: T9, Q2′N ELIC (Dickeya chrysanthemi, UniProt P0C7B7, Q232N); assay: GABA activation of Q2′N ELIC, two-electrode voltage clamp in Xenopus oocytes; type: cell-based, Erwinia chrysanthemii; conditions: Q2′N ELIC; GABA concentration–response
# T9 construct: expressed in transfected cells; host or cells: Xenopus laevis oocytes (cRNA injection)
# F16′L ELIC = biological target: T10, F16′L ELIC (Dickeya chrysanthemi, UniProt P0C7B7, F246L); assay: GABA activation of F16′L ELIC, two-electrode voltage clamp in Xenopus oocytes; type: cell-based, Erwinia chrysanthemii
# T10 construct: expressed in transfected cells; host or cells: Xenopus laevis oocytes (cRNA injection)
# Procedure: as §1, §4, §5
# T6′A ELIC [7] = biological target: T11, T6′A ELIC (Dickeya chrysanthemi, UniProt P0C7B7, T236A); assay: GABA activation of T6′A ELIC, two-electrode voltage clamp in Xenopus oocytes; type: cell-based, Erwinia chrysanthemii; conditions: T6′A ELIC; GABA concentration–response
# T11 construct: expressed in transfected cells; host or cells: Xenopus laevis oocytes (cRNA injection)
# F16′D ELIC [8] = biological target: T12, F16′D ELIC (Dickeya chrysanthemi, UniProt P0C7B7, F246D); assay: GABA activation of F16′D ELIC, two-electrode voltage clamp in Xenopus oocytes; type: cell-based, Erwinia chrysanthemii; conditions: F16′D ELIC; GABA concentration–response
# T12 construct: expressed in transfected cells; host or cells: Xenopus laevis oocytes (cRNA injection)
# Q2′A ELIC = biological target: T13, Q2′A ELIC (Dickeya chrysanthemi, UniProt P0C7B7, Q232A); assay: GABA activation of Q2′A ELIC, two-electrode voltage clamp in Xenopus oocytes; type: cell-based, Erwinia chrysanthemii; conditions: Q2′A receptors
# T13 construct: expressed in transfected cells; host or cells: Xenopus laevis oocytes (cRNA injection)
# Procedure: as §1, §4, §5
# F16′E ELIC [9] = biological target: T14, F16′E ELIC (Dickeya chrysanthemi, UniProt P0C7B7, F246E); assay: GABA activation of F16′E ELIC, two-electrode voltage clamp in Xenopus oocytes; type: cell-based, Erwinia chrysanthemii
# T14 construct: expressed in transfected cells; host or cells: Xenopus laevis oocytes (cRNA injection)
# Procedure: as §1, §4, §5
# F16′W ELIC [10] = biological target: T15, F16′W ELIC (Dickeya chrysanthemi, UniProt P0C7B7, F246W); assay: GABA activation of F16′W ELIC, two-electrode voltage clamp in Xenopus oocytes; type: cell-based, Erwinia chrysanthemii; conditions: F16′W ELIC; GABA concentration–response
# T15 construct: expressed in transfected cells; host or cells: Xenopus laevis oocytes (cRNA injection)
# T6′A ELIC [11] = biological target: T11, T6′A ELIC; assay: Inhibition of GABA-elicited currents of T6′A ELIC in Xenopus oocytes; type: cell-based, Erwinia chrysanthemii; conditions: T6′A ELIC; inhibition curve
# Procedure: as §1, §4, §5
# F16′S ELIC [12] = biological target: T6, F16′S ELIC; assay: Inhibition of GABA-elicited currents of F16′S ELIC in Xenopus oocytes; type: cell-based, Erwinia chrysanthemii; conditions: F16′S ELIC
# F16′T ELIC [13] = biological target: T5, F16′T ELIC; assay: Inhibition of GABA-elicited currents of F16′T ELIC in Xenopus oocytes; type: cell-based, Erwinia chrysanthemii; conditions: F16′T ELIC; inhibition curve
# F16′W ELIC [14] = biological target: T15, F16′W ELIC; assay: Inhibition of GABA-elicited currents of F16′W ELIC in Xenopus oocytes; type: cell-based, Erwinia chrysanthemii; conditions: F16′W ELIC
# T6′S ELIC [15] = biological target: T7, T6′S ELIC; assay: Inhibition of GABA-elicited currents of T6′S ELIC in Xenopus oocytes; type: cell-based, Erwinia chrysanthemii; conditions: T6′S ELIC; inhibition curve
# Q2′N ELIC [16] = biological target: T9, Q2′N ELIC; assay: Inhibition of GABA-elicited currents of Q2′N ELIC in Xenopus oocytes; type: cell-based, Erwinia chrysanthemii; conditions: Q2′N ELIC; inhibition curve
# F16′D ELIC [17] = biological target: T12, F16′D ELIC; assay: Inhibition of GABA-elicited currents of F16′D ELIC in Xenopus oocytes; type: cell-based, Erwinia chrysanthemii; conditions: F16′D ELIC; inhibition curve
# Procedure: as §1, §4, §5
# F16′E ELIC [18] = biological target: T14, F16′E ELIC; assay: Inhibition of GABA-elicited currents of F16′E ELIC in Xenopus oocytes; type: cell-based, Erwinia chrysanthemii; conditions: F16′E ELIC; inhibition curve
# GLIC = tested on: GLIC; set-up: method as in PMID 22677470, PMID 22208189; conditions: cited from earlier work
# wild type ELIC [19] = biological target: T2, wild type ELIC; assay: Inhibition of GABA-elicited currents of wild-type ELIC in Xenopus oocytes; type: cell-based, Erwinia chrysanthemii
# Procedure: as §1, §2, §3
# Analysis and curve fitting were performed using Prism version 4.03 (GraphPad Software, San Diego, CA). Concentration–response data for each oocyte were normalized to the maximal current for that oocyte and the mean ± standard error of the mean (SEM) for a series of oocytes pooled and plotted against agonist or antagonist concentration and iteratively fit to the four-parameter logistic equation. Statistical analysis was performed using a Student’s t test.
# F16′A ELIC [20] = biological target: T3, F16′A ELIC; assay: Inhibition of GABA-elicited currents of F16′A ELIC in Xenopus oocytes; type: cell-based, Erwinia chrysanthemii; conditions: F16′A ELIC; inhibition curve
# wild type ELIC [21] = biological target: T2, wild type ELIC; conditions: previously identified; cited from earlier work
# T15 sequence (P0C7B7 whole entry F246W): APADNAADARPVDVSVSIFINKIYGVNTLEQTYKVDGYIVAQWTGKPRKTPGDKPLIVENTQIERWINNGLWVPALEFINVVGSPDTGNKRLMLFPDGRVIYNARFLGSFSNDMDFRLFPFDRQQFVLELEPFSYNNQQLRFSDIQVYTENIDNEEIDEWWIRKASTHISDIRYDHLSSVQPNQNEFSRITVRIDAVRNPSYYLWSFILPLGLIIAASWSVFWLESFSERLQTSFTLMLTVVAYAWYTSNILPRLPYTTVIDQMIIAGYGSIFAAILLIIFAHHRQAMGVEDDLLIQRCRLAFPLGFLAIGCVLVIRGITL
# T2 sequence (P0C7B7 whole entry): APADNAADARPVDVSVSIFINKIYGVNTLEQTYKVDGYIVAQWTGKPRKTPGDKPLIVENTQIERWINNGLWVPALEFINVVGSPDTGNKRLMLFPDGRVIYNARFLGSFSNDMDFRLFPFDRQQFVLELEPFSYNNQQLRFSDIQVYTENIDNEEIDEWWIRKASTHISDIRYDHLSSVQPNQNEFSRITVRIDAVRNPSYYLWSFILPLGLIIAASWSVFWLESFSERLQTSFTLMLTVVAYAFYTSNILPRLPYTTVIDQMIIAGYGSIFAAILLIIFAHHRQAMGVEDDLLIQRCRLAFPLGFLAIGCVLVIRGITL
# T14 sequence (P0C7B7 whole entry F246E): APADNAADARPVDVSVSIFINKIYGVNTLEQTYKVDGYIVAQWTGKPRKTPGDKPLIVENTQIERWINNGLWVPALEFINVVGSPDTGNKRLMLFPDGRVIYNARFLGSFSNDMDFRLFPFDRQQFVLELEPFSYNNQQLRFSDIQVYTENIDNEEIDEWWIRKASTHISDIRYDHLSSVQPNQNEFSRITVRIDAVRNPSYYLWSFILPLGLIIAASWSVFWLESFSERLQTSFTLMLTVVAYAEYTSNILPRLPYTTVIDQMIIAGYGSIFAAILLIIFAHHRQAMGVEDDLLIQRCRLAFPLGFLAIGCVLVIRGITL
# T6 sequence (P0C7B7 whole entry F246S): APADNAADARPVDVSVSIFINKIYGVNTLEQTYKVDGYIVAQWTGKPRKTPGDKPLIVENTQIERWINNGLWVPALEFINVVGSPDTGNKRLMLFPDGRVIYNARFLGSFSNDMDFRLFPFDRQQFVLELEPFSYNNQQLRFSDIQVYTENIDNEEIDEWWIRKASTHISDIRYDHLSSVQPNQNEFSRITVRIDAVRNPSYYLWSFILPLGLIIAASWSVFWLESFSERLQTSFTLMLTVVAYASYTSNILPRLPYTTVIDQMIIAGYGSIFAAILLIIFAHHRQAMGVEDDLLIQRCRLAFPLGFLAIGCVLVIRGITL
# T3 sequence (P0C7B7 whole entry F246A): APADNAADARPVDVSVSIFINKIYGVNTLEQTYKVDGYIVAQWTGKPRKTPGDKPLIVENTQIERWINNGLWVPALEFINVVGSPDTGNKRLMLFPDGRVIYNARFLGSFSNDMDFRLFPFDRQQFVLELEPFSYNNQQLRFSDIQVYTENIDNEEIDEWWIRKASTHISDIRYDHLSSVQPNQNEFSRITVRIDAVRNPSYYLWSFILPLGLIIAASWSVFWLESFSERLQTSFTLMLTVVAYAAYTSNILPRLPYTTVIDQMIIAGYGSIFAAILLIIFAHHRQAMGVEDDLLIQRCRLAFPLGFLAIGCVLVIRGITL
# T10 sequence (P0C7B7 whole entry F246L): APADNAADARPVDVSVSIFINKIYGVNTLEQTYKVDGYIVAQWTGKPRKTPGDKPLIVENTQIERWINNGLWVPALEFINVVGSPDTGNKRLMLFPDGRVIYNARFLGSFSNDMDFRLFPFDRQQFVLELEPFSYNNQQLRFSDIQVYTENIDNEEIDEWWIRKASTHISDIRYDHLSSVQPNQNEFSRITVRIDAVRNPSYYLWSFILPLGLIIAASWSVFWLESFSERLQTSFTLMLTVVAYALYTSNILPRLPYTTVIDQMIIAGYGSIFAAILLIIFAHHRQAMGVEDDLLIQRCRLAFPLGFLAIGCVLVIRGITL
# T11 sequence (P0C7B7 whole entry T236A): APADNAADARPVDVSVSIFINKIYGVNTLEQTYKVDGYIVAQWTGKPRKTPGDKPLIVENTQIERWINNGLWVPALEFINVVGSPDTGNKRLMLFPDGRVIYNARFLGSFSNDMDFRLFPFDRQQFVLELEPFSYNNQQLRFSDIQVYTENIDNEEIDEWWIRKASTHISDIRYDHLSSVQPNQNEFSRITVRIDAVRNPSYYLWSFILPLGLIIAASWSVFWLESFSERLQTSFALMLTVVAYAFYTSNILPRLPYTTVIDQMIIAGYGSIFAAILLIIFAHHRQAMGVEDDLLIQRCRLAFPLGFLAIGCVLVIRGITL
# T12 sequence (P0C7B7 whole entry F246D): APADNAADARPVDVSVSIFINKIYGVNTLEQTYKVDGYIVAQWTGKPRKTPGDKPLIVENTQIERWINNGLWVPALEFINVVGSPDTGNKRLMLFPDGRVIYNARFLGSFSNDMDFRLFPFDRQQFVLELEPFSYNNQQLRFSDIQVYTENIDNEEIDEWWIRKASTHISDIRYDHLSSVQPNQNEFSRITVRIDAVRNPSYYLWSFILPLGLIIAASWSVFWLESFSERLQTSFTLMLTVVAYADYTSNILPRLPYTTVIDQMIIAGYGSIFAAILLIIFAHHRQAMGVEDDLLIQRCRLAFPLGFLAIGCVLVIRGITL
# T9 sequence (P0C7B7 whole entry Q232N): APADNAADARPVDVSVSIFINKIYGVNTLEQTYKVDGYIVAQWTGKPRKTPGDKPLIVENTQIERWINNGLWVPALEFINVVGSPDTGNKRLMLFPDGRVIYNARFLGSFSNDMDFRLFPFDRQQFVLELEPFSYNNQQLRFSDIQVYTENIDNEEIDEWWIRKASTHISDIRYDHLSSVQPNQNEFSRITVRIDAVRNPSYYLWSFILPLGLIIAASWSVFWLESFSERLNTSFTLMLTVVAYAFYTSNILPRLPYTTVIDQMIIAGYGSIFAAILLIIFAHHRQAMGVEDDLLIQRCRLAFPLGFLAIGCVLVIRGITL
# T7 sequence (P0C7B7 whole entry T236S): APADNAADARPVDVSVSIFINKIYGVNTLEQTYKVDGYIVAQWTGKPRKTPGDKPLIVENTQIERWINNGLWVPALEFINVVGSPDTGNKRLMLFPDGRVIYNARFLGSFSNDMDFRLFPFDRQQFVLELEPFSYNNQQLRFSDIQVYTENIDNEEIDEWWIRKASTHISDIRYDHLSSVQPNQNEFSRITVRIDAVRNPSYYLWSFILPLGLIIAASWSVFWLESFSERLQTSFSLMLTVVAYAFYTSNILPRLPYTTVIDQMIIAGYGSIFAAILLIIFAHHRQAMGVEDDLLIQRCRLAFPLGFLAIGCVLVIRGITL
# T5 sequence (P0C7B7 whole entry F246T): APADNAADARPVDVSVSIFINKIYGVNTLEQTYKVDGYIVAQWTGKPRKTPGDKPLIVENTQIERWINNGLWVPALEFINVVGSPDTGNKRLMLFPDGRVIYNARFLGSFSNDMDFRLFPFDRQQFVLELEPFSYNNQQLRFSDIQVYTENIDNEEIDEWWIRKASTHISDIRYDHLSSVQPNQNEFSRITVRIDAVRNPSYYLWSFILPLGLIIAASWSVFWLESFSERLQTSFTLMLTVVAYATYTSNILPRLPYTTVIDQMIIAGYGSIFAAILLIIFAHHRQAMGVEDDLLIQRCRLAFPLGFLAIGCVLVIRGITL
# T1 sequence (P0C7B7 whole entry F246Q): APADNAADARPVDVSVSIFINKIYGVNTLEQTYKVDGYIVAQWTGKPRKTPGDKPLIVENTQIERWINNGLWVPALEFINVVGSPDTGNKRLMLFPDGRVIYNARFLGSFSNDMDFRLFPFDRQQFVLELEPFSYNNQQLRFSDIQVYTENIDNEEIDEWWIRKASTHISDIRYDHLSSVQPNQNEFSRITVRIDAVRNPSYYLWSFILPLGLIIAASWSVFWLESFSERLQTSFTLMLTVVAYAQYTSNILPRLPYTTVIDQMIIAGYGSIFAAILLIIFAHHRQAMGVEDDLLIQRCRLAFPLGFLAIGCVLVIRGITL
# T4 sequence (P0C7B7 whole entry T236S/F246S): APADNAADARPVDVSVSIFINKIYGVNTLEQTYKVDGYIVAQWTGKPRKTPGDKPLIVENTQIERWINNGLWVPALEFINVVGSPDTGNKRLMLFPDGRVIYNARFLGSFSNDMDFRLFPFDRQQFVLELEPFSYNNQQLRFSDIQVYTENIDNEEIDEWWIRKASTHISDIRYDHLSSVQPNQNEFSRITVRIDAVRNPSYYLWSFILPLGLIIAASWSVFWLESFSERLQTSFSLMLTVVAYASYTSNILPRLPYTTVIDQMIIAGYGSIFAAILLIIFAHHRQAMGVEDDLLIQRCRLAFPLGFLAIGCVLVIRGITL
# T13 sequence (P0C7B7 whole entry Q232A): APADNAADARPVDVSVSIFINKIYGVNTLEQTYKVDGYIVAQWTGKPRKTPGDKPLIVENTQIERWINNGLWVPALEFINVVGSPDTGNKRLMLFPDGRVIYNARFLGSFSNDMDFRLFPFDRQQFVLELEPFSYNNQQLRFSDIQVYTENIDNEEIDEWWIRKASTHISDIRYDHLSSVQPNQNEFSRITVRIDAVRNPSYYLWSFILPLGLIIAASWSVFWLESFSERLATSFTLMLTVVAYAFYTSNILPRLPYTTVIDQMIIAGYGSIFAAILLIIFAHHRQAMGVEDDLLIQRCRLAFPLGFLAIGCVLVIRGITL
# T8 sequence (P0C7B7 whole entry F246Y): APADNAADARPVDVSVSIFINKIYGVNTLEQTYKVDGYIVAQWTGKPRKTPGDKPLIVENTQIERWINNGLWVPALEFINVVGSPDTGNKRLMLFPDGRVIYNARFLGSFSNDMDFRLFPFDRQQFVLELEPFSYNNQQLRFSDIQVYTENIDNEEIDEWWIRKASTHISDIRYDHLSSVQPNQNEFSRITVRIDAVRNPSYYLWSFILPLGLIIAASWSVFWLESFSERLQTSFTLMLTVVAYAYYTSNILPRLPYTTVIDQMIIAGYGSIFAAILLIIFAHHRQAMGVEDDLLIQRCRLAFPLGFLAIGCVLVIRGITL
compound,measurement,setting,value
"NCCCC(=O)O [GABA, γ-aminobutyric acid]",nH,F16′Q ELIC,2.3 ± 0.6
same,nH (Hill slope),wild type ELIC [1]; GABA concentration–response,2.5 ± 0.7
same,EC50,"wild type ELIC [1]; oocytes clamped at −60 mV, mean ± SEM, read-out: GABA pEC50 (converted)",1660 µM
same,EC50,wild type ELIC [1]; read-out: GABA EC50,1600 µM
same,nH,F16′A ELIC [2],3.0 ± 0.5
same,nH,F16′S/T6′S ELIC,2.2 ± 0.7
same,nH,F16′T ELIC [3],1.8 ± 0.3
same,nH,F16′S ELIC [4],2.5 ± 0.6
same,nH,T6′S ELIC [5],2.7 ± 0.3
same,nH,F16′Y ELIC,2.1 ± 0.3
same,nH,Q2′N ELIC [6],2.6 ± 1.3
same,fold change in EC50 compared to wild type,F16′L ELIC; F16′L ELIC vs wild type,32 fold
same,nH,"F16′L ELIC; F16′L ELIC, GABA concentration–response",1.6 ± 0.2
same,nH,T6′A ELIC [7],2.1 ± 0.1
same,nH,F16′D ELIC [8],2.5 ± 0.3
same,response to application of 100 mM GABA,Q2′A ELIC,did not respond
same,fold increase in EC50 compared to wild type,F16′E ELIC [9]; F16′E ELIC vs wild type,16 fold
same,nH,"F16′E ELIC [9]; F16′E ELIC, GABA concentration–response",1.3 ± 0.2
same,nH,F16′W ELIC [10],3.6 ± 0.5
"C=C(C)[C@@H]1[C@H]2OC(=O)[C@@H]1[C@]1(O)C[C@H]3O[C@]34C(=O)O[C@H]2[C@]14C [PXN, Picrotoxinin]",nH,T6′A ELIC [11],1.8 ± 0.4
same,inhibition of the GABA EC50 response,F16′S ELIC [12]; co-application of 100 μM PXN with GABA EC50,completely abolishes
same,nH,F16′S ELIC [12]; inhibition curve,1.3 ± 0.3
same,nH,F16′T ELIC [13],0.9 ± 0.1
same,inhibition at 100 µM,"F16′W ELIC [14]; co-application of 100 μM PXN with GABA EC50, read-out: inhibition of the GABA EC50 response",~50%
same,nH,F16′W ELIC [14]; inhibition curve,1.3 ± 0.3
same,nH,T6′S ELIC [15],1.3 ± 0.3
same,nH,Q2′N ELIC [16],1.6 ± 0.3
same,nH,F16′D ELIC [17],1.0 ± 0.2
same,nH,F16′E ELIC [18],0.6 ± 0.1
same,IC50,GLIC,2.6 µM
same,IC50,wild type ELIC [19],72 µM
same,inhibition at 100 µM,wild type ELIC [19]; read-out: inhibition of the GABA EC50 response,~50%
same,nH,"wild type ELIC [19]; wild type ELIC, inhibition curve",1.3 ± 0.3
same,nH,F16′A ELIC [20],1.0 ± 0.2
CCCC(C(=O)OCCN(CC)CC)(c1ccccc1)c1ccccc1 [proadifen],IC50,wild type ELIC [21],8 µM
same,IC50,"wild type ELIC [19]; wild type ELIC, inhibition measured at the GABA EC50, read-out: IC50",8.1 µM
